16 compounds from patent US20250304535A1, “KAT6 Inhibitors” (BeiGene Switzerland GmbH, priority 2024, published 2025) can be followed below.

Bounds are passed on as bounds.

For assay [1], the target named is Recombinant human KAT6A protein (497-780) (Homo sapiens (Human), UniProt Q92794). Kind of assay: KAT6A biochemical TR-FRET assay. The settings on record: histone H4 peptide 2000 nM, AcCoA 300 nM, enzyme 5 nM. As for the experimental part:
Enzymatic reactions of KAT6A and KAT6B were performed using Fluorescence Resonance Energy Transfer (TR-FRET) assay, which measures acetylation of a synthetic, biotinylated histone-H4 peptide by the KAT6A and KAT6B enzymes. Recombinant human KAT6A protein (497-780) were expressed in BL21 cell using an E. coli expression system. Recombinant human KAT6B protein (657-1069) was expressed in sf9 cell using a baculovirus expression system. […] Acetyl coenzyme A was purchased from Sigma-Aldrich (#A-2056).
Testing for the inhibition activities of various compounds disclosed herein was carried out at room temperature in assay buffer containing 100 mM Tris/HCl Ph7.8, 15 mM NaCl, 0.01% chicken egg white albumin, 1 mM DTT and 0.01% Tween-20. Compounds in DMSO were dispensed into wells of a black, 384-well plate (Corning 4514) using ECHO555 (Beckman). The final concentration ranges of the test compounds were 0.0625-1,000 nM, 0.625-10,000 nM, or 0.313-5,000 nM. Five μL of KAT6A or KAT6B enzyme solution were added to wells, and the plate was incubated for 1 hour at room temperature (rt). After incubation for 1 hour at rt, 5 μL H4 and AcCoA substrate solutions were added to the wells to initiate reaction, and the plate was incubated. After 2 hours reaction, 5 μL detection reagent were added to the wells, and the plate was incubated for 2 hours. After two hours incubation, detection reagent containing 5 nM Anti-histone H4 antibody (ABCAM #ab177790), 100 μM formic acid (sigma #06473-100ML), 0.1 test/μL streptavidin-XL665 (PerkinElmer #610SAXLG), 0.05 test/μL PAb anti-rabbit IgG-Eu (PerkinElmer μ61PARKLA) was added to the wells. TR-FRET was measured on a microplate reader (PHERAstar FSX, BMG labtech). […] In Table 6, I≤5 nM, 5 nM<II≤50 nM.

The target of assay [2] is Recombinant human KAT6B protein (657-1069) (Homo sapiens (Human), UniProt Q8WYB5). Briefly: KAT6B biochemical TR-FRET assay. The settings on record: histone H4 peptide 1000 nM, AcCoA 100 nM, enzyme 5 nM. The procedure:
Enzymatic reactions of KAT6A and KAT6B were performed using Fluorescence Resonance Energy Transfer (TR-FRET) assay, which measures acetylation of a synthetic, biotinylated histone-H4 peptide by the KAT6A and KAT6B enzymes. Recombinant human KAT6A protein (497-780) were expressed in BL21 cell using an E. coli expression system. Recombinant human KAT6B protein (657-1069) was expressed in sf9 cell using a baculovirus expression system. Histone H4 peptide (SEQ ID NO: 1—[…]-GGK-Biotin), which was used as substrate, was synthesized by GL Biochem, Shanghai, China. Acetyl coenzyme A was purchased from Sigma-Aldrich (#A-2056).
Testing for the inhibition activities of various compounds disclosed herein was carried out at room temperature in assay buffer containing 100 mM Tris/HCl Ph7.8, 15 mM NaCl, 0.01% chicken egg white albumin, 1 mM DTT and 0.01% Tween-20. Compounds in DMSO were dispensed into wells of a black, 384-well plate (Corning 4514) using ECHO555 (Beckman). The final concentration ranges of the test compounds were 0.0625-1,000 nM, 0.625-10,000 nM, or 0.313-5,000 nM. Five μL of KAT6A or KAT6B enzyme solution were added to wells, and the plate was incubated for 1 hour at room temperature (rt). After incubation for 1 hour at rt, 5 μL H4 and AcCoA substrate solutions were added to the wells to initiate reaction, and the plate was incubated. After 2 hours reaction, 5 μL detection reagent were added to the wells, and the plate was incubated for 2 hours. After two hours incubation, detection reagent containing 5 nM Anti-histone H4 antibody (ABCAM #ab177790), 100 μM formic acid (sigma #06473-100ML), 0.1 test/μL streptavidin-XL665 (PerkinElmer #610SAXLG), 0.05 test/μL PAb anti-rabbit IgG-Eu (PerkinElmer μ61PARKLA) was added to the wells. TR-FRET was measured on a microplate reader (PHERAstar FSX, BMG labtech). The IC50s were calculated based on inhibition of enzyme activity in the presence of increasing concentrations of test compounds, and the results are shown in Table 6. In Table 6, I≤5 nM, 5 nM<II≤50 nM.

In assay [3] the test system is histone H3K23 acetylation in U-2 OS cells. Briefly: Histone H3 lysine 23 acetylation assay in U-2 OS cells (high content analysis). The format is cell-based. The conditions noted are these: Homo sapiens, U2OS, 24 hrs exposure, H3K23ac level. As for the experimental part:
Assay B: Histone H3 lysine 23 Acetylation Assay
Compounds were tested for their capacity to suppress the histone H3K23 acetylation in the following high content analysis assay.
The cell line U-2 OS (ATCC HTB-96) was seeded at a density of 2000 cells per well in black 384 well cell culture/imaging microplates in 45 μl McCoy's 5A medium with […]. After overnight incubation in 37° C., 5% CO2 incubator, cells were then treated with a 9-point dilution series of compounds and a blank control group with medium containing 0.1% DMSO.
Following a 24 hrs exposure to the compounds, the cells were fixed with 4% immunohistochemical fixative for 20 mins at room temperature, washed with DPBS with 2% fetal bovine serum, and permed with Perm Buffer III for 30 min on ice, washed with DPBS with 2% fetal bovine serum. Then the cells were blocked with Odyssey blocking buffer containing 0.1% Tween 20. 20 ul Anti-Histone H3 (acetyl K23) antibody (Abcam, ab177275) in odyssey blocking buffer containing 0.1% Tween20 was added and incubated overnight at 4° C. After incubation, the cells were washed for 3 times and a secondary antibody Anti-rabbit IgG (H+L), F(ab′)2 Fragment (Alexa Fluor® 647 Conjugate) (CST, 4414S) were added into cells for one hour. The cells were washed and 1 ug/ml DAPI (Thermo, 62248) were added for 10 min. Then cells were washed and read on the PerkinElmer Operetta CLS high content analysis system. The nuclei were identified by DAPI and H3K23ac level was calculated from the Alexa Fluor 647 intensity in the nuclei. Inhibition rate of H3K23ac was calculated as the mean intensity of cells per well relative to blank controls on the same plate.

Recombinant human KAT6A protein (497-780), sequence (Q92794 497-780): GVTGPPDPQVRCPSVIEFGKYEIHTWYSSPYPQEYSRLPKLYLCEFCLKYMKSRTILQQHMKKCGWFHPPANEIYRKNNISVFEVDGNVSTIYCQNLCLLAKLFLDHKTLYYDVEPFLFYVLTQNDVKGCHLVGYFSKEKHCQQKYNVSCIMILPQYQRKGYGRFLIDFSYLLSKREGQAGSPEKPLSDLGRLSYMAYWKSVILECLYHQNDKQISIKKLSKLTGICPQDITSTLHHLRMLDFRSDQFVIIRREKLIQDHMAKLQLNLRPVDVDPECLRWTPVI
Recombinant human KAT6B protein (657-1069), sequence (Q8WYB5 657-1069): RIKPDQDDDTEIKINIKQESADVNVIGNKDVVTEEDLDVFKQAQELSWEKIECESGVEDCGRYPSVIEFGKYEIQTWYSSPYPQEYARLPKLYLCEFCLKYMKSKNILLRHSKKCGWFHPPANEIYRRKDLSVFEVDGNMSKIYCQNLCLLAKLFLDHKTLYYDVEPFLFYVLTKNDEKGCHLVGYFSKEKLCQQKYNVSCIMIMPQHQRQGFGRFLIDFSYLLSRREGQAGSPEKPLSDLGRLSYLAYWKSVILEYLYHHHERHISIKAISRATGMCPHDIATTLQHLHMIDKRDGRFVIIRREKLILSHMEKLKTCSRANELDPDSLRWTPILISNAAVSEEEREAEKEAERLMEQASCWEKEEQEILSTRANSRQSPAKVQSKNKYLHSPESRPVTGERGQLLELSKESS

One may read the IC50 as the concentration needed to halve the response being measured. With `COc1ccc(C2(OC)CC2)cc1S(=O)(=O)NC(=O)c1ccc(Cn2cccn2)c(OC)n1` [Example C56, 5-((1H-pyrazol-1-yl)methyl)-6-methoxy-N-((2-methoxy-5-(1-methoxycyclopropyl)phenyl)sulfonyl)picolinamide], the half-inhibitory concentration (IC50) in assay [1] is no more than 5 nM; in assay [2], no more than 5 nM; in assay [3] it was no more than 10 nM.

As for `COc1ccc(C(C)(C)C)cc1S(=O)(=O)NC(=O)c1ccc(Cn2cccn2)c(C2CC2)c1` [Example C2, 4-((1H-pyrazol-1-yl)methyl)-N-((5-(tert-butyl)-2-methoxyphenyl)sulfonyl)-3-cyclopropylbenzamide], the half-inhibitory concentration (IC50) in assay [1] is no more than 5 nM; in assay [2], no more than 5 nM; in assay [3], no more than 10 nM.

Regarding `COc1ccc(C(C)(C)C)nc1S(=O)(=O)NC(=O)c1ccc(Cn2cccn2)c(C2CCC2)c1` [Example C21, 4-((1H-pyrazol-1-yl)methyl)-N-((6-(tert-butyl)-3-methoxypyridin-2-yl)sulfonyl)-3-cyclobutyl-benzamide], the concentration for half-maximal inhibition (IC50) is no more than 5 nM in assay [1], no more than 5 nM in assay [2] and no more than 10 nM in assay [3].

For `COc1cc(C(=O)NS(=O)(=O)c2nc(C(C)(C)C)ccc2OC)ccc1Cc1ccccn1` [Example C32, N-((6-(tert-butyl)-3-methoxypyridin-2-yl)sulfonyl)-3-methoxy-4-(pyridin-2-ylmethyl)benzamide], the IC50 was no more than 5 nM in assay [1], no more than 5 nM in assay [2] and no more than 10 nM in assay [3].

As for `COc1ccc(C(C)(C)C)cc1S(=O)(=O)NC(=O)c1ccc(Cn2cccn2)c(C)c1` [Example C3, 4-((1H-pyrazol-1-yl)methyl)-N-((5-(tert-butyl)-2-methoxyphenyl)sulfonyl)-3-methylbenzamide], the IC50 was no more than 5 nM in assay [1], no more than 5 nM in assay [2] and no more than 10 nM in assay [3].

As to `COc1cc(C(=O)NS(=O)(=O)c2nc(C(C)(C)C)ccc2OC)ccc1Cn1ccc(C)n1` [Example C33, N-((6-(tert-butyl)-3-methoxypyridin-2-yl)sulfonyl)-3-methoxy-4-((3-methyl-1H-pyrazol-1-yl)methyl)benzamide], the concentration for half-maximal inhibition (IC50) was no more than 5 nM in assay [1], no more than 5 nM in assay [2] and no more than 10 nM in assay [3].

As for `COc1ccc(C23COC(C2)C3)cc1S(=O)(=O)NC(=O)c1ccc(Cn2cccn2)c(OC)n1` [Example C77, 5-((1H-pyrazol-1-yl)methyl)-N-((5-(2-oxabicyclo[2.1.1]hexan-4-yl)-2-methoxyphenyl)sulfonyl)-6-methoxypicolinamide], the half-inhibitory concentration (IC50) in assay [1] is 5 to 50 nM; in assay [2] it was no more than 5 nM; in assay [3], no more than 10 nM.

In the case of `COc1ccc(C(C)(C)C)cc1S(=O)(=O)NC(=O)c1cc(Br)c(Cn2cccn2)cc1F` [Example C10, 4-((1H-pyrazol-1-yl)methyl)-5-bromo-N-((5-(tert-butyl)-2-methoxyphenyl)sulfonyl)-2-fluorobenzamide], the values for the IC50 in assay [1], in assay [2] and in assay [3] were no more than 5 nM, no more than 5 nM and no more than 10 nM, respectively.

With `COc1cccc(OC)c1S(=O)(=O)NC(=O)c1ccc(Cn2cccn2)c(OC)n1` [Example C69, 5-((1H-pyrazol-1-yl)methyl)-N-((2,6-dimethoxyphenyl)sulfonyl)-6-methoxy-picolinamide], the IC50 in assay [2] is no more than 5 nM; in assay [3], no more than 10 nM.

With `COc1ccc2c(c1S(=O)(=O)NC(=O)c1ccc(Cn3cccn3)c(OC)n1)OCC(C)(C)C2` [Example C55, 5-((1H-pyrazol-1-yl)methyl)-6-methoxy-N-((7-methoxy-3,3-dimethylchroman-8-yl)sulfonyl)picolinamide], the values for the IC50 in assay [1], in assay [2] and in assay [3] were no more than 5 nM, no more than 5 nM and no more than 10 nM, respectively.

`COc1ccc2c(c1S(=O)(=O)NC(=O)c1ccc(Cn3cccn3)c(OC)n1)OCC21CCC1` [Example C60, 5-((1H-pyrazol-1-yl)methyl)-6-methoxy-N-((6-methoxy-2H-spiro[benzofuran-3,1′-cyclobutan]-7-yl)sulfonyl)picolinamide]: the IC50 was no more than 5 nM in assay [1], no more than 5 nM in assay [2] and no more than 10 nM in assay [3].

In the case of `COc1ccc(C23CC(C2)C3)nc1S(=O)(=O)NC(=O)c1ccc(Cn2cccn2)c(OC)n1` [Example C79, 5-((1H-pyrazol-1-yl)methyl)-N-((6-(bicyclo[1.1.1]pentan-1-yl)-3-methoxypyridin-2-yl)sulfonyl)-6-methoxypicolinamide], the figures for the IC50 in assay [1], in assay [2] and in assay [3] were no more than 5 nM, no more than 5 nM and no more than 10 nM, respectively.

Regarding `COc1ccc(C(C)(C)C)nc1S(=O)(=O)NC(=O)c1ccc(Cn2cccn2)c(C(F)F)c1` [Example C36, 4-((1H-pyrazol-1-yl)methyl)-N-((6-(tert-butyl)-3-methoxypyridin-2-yl)sulfonyl)-3-(difluoromethyl)benzamide], the IC50 in assay [1] was no more than 5 nM; in assay [2], no more than 5 nM; in assay [3], no more than 10 nM.

In the case of `COc1ccc(C(C)(C)C)cc1S(=O)(=O)NC(=O)c1ccc(Cc2ccccn2)c(C)n1` [Example C35, N-((5-(tert-butyl)-2-methoxyphenyl)sulfonyl)-6-methyl-5-(pyridin-2-ylmethyl)picolinamide], the results for the IC50 in assay [1], in assay [2] and in assay [3] were no more than 5 nM, no more than 5 nM and no more than 10 nM, respectively.

For the compound `COc1ccc2c(c1S(=O)(=O)NC(=O)c1ccc(Cn3cccn3)c(C3CC3)n1)OCC2(C)C` [Example C47, 5-((1H-pyrazol-1-yl)methyl)-6-cyclopropyl-N-((6-methoxy-3,3-dimethyl-2,3-dihydrobenzofuran-7-yl)sulfonyl)picolinamide], the half-maximal inhibitory concentration (IC50) in assay [1] was no more than 5 nM; in assay [2], no more than 5 nM; in assay [3] it was no more than 10 nM.

`COc1ccc(C(C)(C)C)nc1S(=O)(=O)NC(=O)c1ccc(Cn2ccc(N)n2)c(OC)n1` [Example C37, 5-((3-amino-1H-pyrazol-1-yl)methyl)-N-((6-(tert-butyl)-3-methoxypyridin-2-yl)sulfonyl)-6-methoxypicolinamide]: the figures for the IC50 in assay [1], in assay [2] and in assay [3] were no more than 5 nM, no more than 5 nM and no more than 10 nM, respectively.
